Assay results published in patent US20230233488A1, “NOVEL USE OF A MODULATOR OF GLUCOSYLCERAMIDE DEGRADATION FOR VIRAL INFECTIONS” (SPEDDING RESEARCH SOLUTIONS, SAS, priority 2020, published 2023).

Columns and labels:
A549-ACE2 cells = assay: Cytotoxicity in A549-ACE2 cells (AlamarBlue); conditions: 48 h incubation, 10^−8 to 5.10^−5 M
[1] = test system: dengue virus serotype 2—strain 16681 (DENV2); assay: DENV2 infection of Huh7 cells, infectious virus release in supernatants (plaque assay on BHK cells); format: cell-based
Description: • 2.1 Material and methods Huh7, human hepatoma cells were used for all primary experiments. For all siRNA experiments, cells were seeded in 24-well plates at a concentration of 2×10^5 cells/well in DMEM and 10% FBS. […] During siRNA and drug treatment the media was removed and replaced with DMEM and 2% FBS and a corresponding concentration of siRNA or ambroxol. During viral infection, all media is removed and set aside, and a viral inoculum is added to the cells. The cells and viral inoculum are incubated for 1 hr at room temperature on a rocker. The virus is then aspirated from cells, cells are washed with 1Xphosphate buffer saline (PBS), the media is re-added to the cells, and cells are incubated at 37° C. and 5% CO2 for 24 h. […] Plaque assay analysis of infectious virus release from supernatants was conducted on baby hamster kidney cells (BHK cells). BHK cells are maintained in MEM with 10% FBS. For plaque assays, BHKs are seeded in 6 well plates at a density of […] cells/well. The following day, dilutions of viral supernatants collected from samples are applied to BHK cells, followed by a 1 hr incubation at room temperature, and then cells are overlaid with MEM containing 5% FBS and 2% agarose. Plaques are counted at 6 days post infection. For qRT-PCR analysis, cells are collected post infection in TRIzol reagent (Invitrogen), and RNA is extracted per manufacturer's protocol. A one-step qRT-PCR kit from Agilent (Brilliant III Ultra Fast SYBR Green qRT-PCR Kit) is used to assess viral genome copies. A standard curve of viral RNA is generated using a viral RNA from a cDNA subclone of DENV2 as described in Gullberg RC, et al. 2018. Copies of viral RNA are normalized to the ribosomal protein lateral stalk protein subunit PO (RPLPO) gene using the delta delta Cq method also described in Gullberg RC et al. 2018 (cited above).
Huh7 cells were treated with siRNA targeting glucosylceramidase beta 1 (GBA1) and infected with dengue virus serotype 2—strain 16681 (DENV2) with a multiplicity of infection or MOI=0.3) according to known techniques (Gullberg RC et al. 2018 cited above). After 24 hours post infection (hpi), supernatants were collected and analyzed via plaque assay on baby hamster kidney cells (BHK cells) for infectious virus release.
Huh7 cells were pre-treated with Ambroxol hydrochloride at 0.391, 0.781, 1.56, 3.125, 6.25, 12.5, 25, 50, 100, and 200 μM for 24 h, followed by DENV2 infection with MOI=0.1; or MOI=5). 24 hours post infection, supernatants were collected and analyzed via plaque assay on BHK cells.
Huh7 cells were treated with siRNAs targeting GBA1 and glucosylceramidase beta 2 (GBA2) enzymes followed by DENV2 infection with MOI=0.1; or MOI=5). 24 hpi, supernatants were collected and analyzed via plaque assay on BHK cells while RNA was extracted from cells and analyzed via qRT-PCR for DENV2 genome replication. Results

Huh7 cells = assay: Cytotoxicity in Huh7 cells (AlamarBlue); format: cell-based, human; conditions: 0.391 to 200 μM
SARS-CoV-2 = assay: Antiviral activity against SARS-CoV-2 in A549-ACE2 cells (supernatant viral load by RT-qPCR); conditions: for antiviral effect on SARS-CoV-2 replication / viral load: 10^−8 to 5.10^−5 M, 48 h, hydrochloride

## Cl.Nc1c(Br)cc(Br)cc1CN[C@H]1CC[C@H](O)CC1 [Ambroxol, trans-4-(2-Amino-3,5-dibromobenzylamino) cyclohexanol hydrochloride]
A549-ACE2 cells
  cell viability (cytotoxicity): no toxic effects on cell viability
[1]; Dengue versus SARS-CoV-2
  potency against Dengue virus relative to SARS-CoV-2: 10 fold
[1]; Dengue virus, DENV2, MOI 0.1, read-out: IC50 against Dengue virus
  IC50: 0.86 µM
[1]; MOI=0.1, Huh7 cells, 24 h post infection
  concentration above which no detectable virus was released from cells: above 6.25 μM
[1]; MOI=0.1, all concentrations tested (0.391 to 200 μM), 24 h pre-treatment, 24 h post infection
  DENV2 release from Huh7 cells, low MOI: statistically significant reduction of DENV2 release
[1]; MOI=5, Huh7 cells, 24 h post infection
  concentration giving a statistically significant reduction of DENV2 release: ≥ 12.5 µM
[1]; MOI=5, all concentrations tested (0.391 to 200 μM), 24 h post infection
  DENV2 release from Huh7 cells, high MOI: reduced DENV2 release
Huh7 cells
  cytopathic effect on cells: only the highest concentrations (100 μM and 200 μM) having any cytopathic effect
SARS-CoV-2
  antiviral effect on SARS-CoV-2 replication / viral load: significant concentration-dependent antiviral effect
SARS-CoV-2; listed as ambroxol
  antiviral effect on SARS-CoV-2 replication / viral load: concentration-dependent effect reducing SARS-CoV-2 viral load
SARS-CoV-2; dose-response of FIG. 1C
  maximal antiviral effect compared with remdesivir: equivalent to that of remdesivir
SARS-CoV-2; read-out: 50% effective concentration (IC50), SARS-CoV-2 supernatant viral load, MOI 0.1, 48 h post infection, hydrochloride
  IC50: 22 µM
